US6770596B1, “Fused tricyclic compounds, process for their preparation, and herbicidal compositions containing them” (Ishihara Sangyo Kaisha Ltd., priority 2002, dated 2004)

What was measured:
Type in all cases: in vivo
[1] = test system: sicklepod (Cassia obtusifolia, CAO); assay: Pre-emerge test, sicklepod; details: 250 g ai/ha, 14 days after application, rating scale 0-100 (0 no damage, 100 complete death)
Procedure, shortened: (§1)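 Seeds planted 1 day pre-application in sandy loam soil mix; acetone solutions sprayed at 8 to 1000 g ai/ha (187 l/ha, flat fan nozzle, track sprayer). 14 d later, visual damage scored on a 0–100 scale.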

[2] = test system: redroot pigweed (Amaranthus retroflexus, AMR); assay: Post-emerge test, redroot pigweed; details: 250 g ai/ha, 14 days after application, rating scale 0-100 (0 no damage, 100 complete death)
Procedure, shortened: (§2)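 Greenhouse post-emergence spray onto plants at about the 2-3 leaf stage in sandy loam pots, compound in acetone at 187 l/ha plus 0.25% v/v non-ionic surfactant, 8-1000 g ai/ha by track sprayer. Phytotoxicity scored 14 days after application, 0 (no damage) to 100 (complete death).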

[3] = test system: common ragweed (Ambrosia artemisiifolia L., AML); assay: Post-emerge test, common ragweed; details: 250 g ai/ha, 14 days after application, rating scale 0-100 (0 no damage, 100 complete death)
Procedure, shortened: as §2

[4] = test system: common ragweed (Ambrosia artemisiifolia L., AML); assay: Pre-emerge test, common ragweed; details: 250 g ai/ha, 14 days after application, rating scale 0-100 (0 no damage, 100 complete death)
Procedure, shortened: as §1

[5] = test system: cocklebur (Xanthium strumariunt, XAS); assay: Post-emerge test, cocklebur; details: 250 g ai/ha, 14 days after application, rating scale 0-100 (0 no damage, 100 complete death)
Procedure, shortened: as §2

[6] = test system: barnyardgrass (Echinachloa crus-galli, ECC); assay: Pre-emerge test, barnyardgrass; details: 250 g ai/ha, 14 days after application, rating scale 0-100 (0 no damage, 100 complete death)
Procedure, shortened: as §1

[7] = test system: johnsongrass (Sorghum halepense, SOH); assay: Pre-emerge test, johnsongrass; details: 250 g ai/ha, 14 days after application, rating scale 0-100 (0 no damage, 100 complete death)
Procedure, shortened: as §1

[8] = test system: large crabgrass (Digitaria sanguinalis, DIS); assay: Pre-emerge test, large crabgrass; details: 250 g ai/ha, 14 days after application, rating scale 0-100 (0 no damage, 100 complete death)
Procedure, shortened: as §1

[9] = test system: cocklebur (Xanthium strumariunt, XAS); assay: Pre-emerge test, cocklebur; details: 250 g ai/ha, 14 days after application, rating scale 0-100 (0 no damage, 100 complete death)
Procedure, shortened: as §1

[10] = test system: ivyleaf morningglory (Ipomoea hederacea, IPH); assay: Pre-emerge test, ivyleaf morningglory; details: 250 g ai/ha, 14 days after application, rating scale 0-100 (0 no damage, 100 complete death)
Procedure, shortened: as §1

[11] = test system: velvetleaf (Abutilon theophrasti, ABT); assay: Post-emerge test, velvetleaf; details: 250 g ai/ha, 14 days after application, rating scale 0-100 (0 no damage, 100 complete death)
Procedure, shortened: as §2

[12] = test system: upland rice (Oryza sp., var.Tebonnet, RICE); assay: Pre-emerge test, crop damage upland rice
Procedure, shortened: (§3)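 Sandy loam soil mix, 10 cm pots, sowing 1 d before treatment; spray volume 187 l/ha, rates 8–1000 g ai/ha in acetone; 0–100 visual rating at 14 d.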

[13] = test system: field corn (Zea mays L., var. Dekalb 535, CORN); assay: Post-emerge test, crop damage field corn
Procedure, shortened: as §2

[14] = test system: soybean (Glycine max L., var. Pella 86, SOY); assay: Post-emerge test, crop damage soybean
Procedure, shortened: as §2

[15] = test system: soybean (Glycine max L., var. Pella 86, SOY); assay: Pre-emerge test, crop damage soybean
Procedure, shortened: as §3

[16] = test system: barnyardgrass (Echinachloa crus-galli, ECC); assay: Post-emerge test, barnyardgrass; details: 250 g ai/ha, 14 days after application, rating scale 0-100 (0 no damage, 100 complete death)
Procedure, shortened: as §2

[17] = test system: sicklepod (Cassia obtusifolia, CAO); assay: Post-emerge test, sicklepod; details: 250 g ai/ha, 14 days after application, rating scale 0-100 (0 no damage, 100 complete death)
Procedure, shortened: as §2

[18] = test system: lambsquarters (Chenopodium album, CHA); assay: Pre-emerge test, lambsquarters; details: 250 g ai/ha, 14 days after application, rating scale 0-100 (0 no damage, 100 complete death)
Procedure, shortened: as §1

[19] = test system: velvetleaf (Abutilon theophrasti, ABT); assay: Pre-emerge test, velvetleaf; details: 250 g ai/ha, 14 days after application, rating scale 0-100 (0 no damage, 100 complete death)
Procedure, shortened: as §1

[20] = test system: wheat (Triticum aestivum); assay: Post-emerge test, crop damage wheat
Procedure, shortened: as §2

[21] = test system: green foxtail (Setaria viridis, SEV); assay: Pre-emerge test, green foxtail; details: 250 g ai/ha, 14 days after application, rating scale 0-100 (0 no damage, 100 complete death)
Procedure, shortened: as §1

[22] = test system: redroot pigweed (Amaranthus retroflexus, AMR); assay: Pre-emerge test, redroot pigweed; details: 250 g ai/ha, 14 days after application, rating scale 0-100 (0 no damage, 100 complete death)
Procedure, shortened: as §1

[23] = test system: field corn (Zea mays L., var. Dekalb 535, CORN); assay: Pre-emerge test, crop damage field corn
Procedure, shortened: as §3

[24] = test system: upland rice (Oryza sp., var.Tebonnet, RICE); assay: Post-emerge test, crop damage upland rice
Procedure, shortened: as §2

[25] = test system: johnsongrass (Sorghum halepense, SOH); assay: Post-emerge test, johnsongrass; details: 250 g ai/ha, 14 days after application, rating scale 0-100 (0 no damage, 100 complete death)
Procedure, shortened: as §2

[26] = test system: wheat (Triticum aestivum); assay: Pre-emerge test, crop damage wheat
Procedure, shortened: as §3

[27] = test system: lambsquarters (Chenopodium album, CHA); assay: Post-emerge test, lambsquarters; details: 250 g ai/ha, 14 days after application, rating scale 0-100 (0 no damage, 100 complete death)
Procedure, shortened: as §2

[28] = test system: green foxtail (Setaria viridis, SEV); assay: Post-emerge test, green foxtail; details: 250 g ai/ha, 14 days after application, rating scale 0-100 (0 no damage, 100 complete death)
Procedure, shortened: as §2

[29] = test system: large crabgrass (Digitaria sanguinalis, DIS); assay: Post-emerge test, large crabgrass; details: 250 g ai/ha, 14 days after application, rating scale 0-100 (0 no damage, 100 complete death)
Procedure, shortened: as §2

[30] = test system: ivyleaf morningglory (Ipomoea hederacea, IPH); assay: Post-emerge test, ivyleaf morningglory; details: 250 g ai/ha, 14 days after application, rating scale 0-100 (0 no damage, 100 complete death)
Procedure, shortened: as §2

[31] = pre-emerge, 250 g ai/ha, 14 days after application, rating scale 0-100 (0 no damage, 100 complete death)
[32] = post-emerge, 250 g ai/ha, 14 days after application, rating scale 0-100 (0 no damage, 100 complete death)
[33] = var. Tebonnet, Oryza sp. (upland rice), in vivo, 14 days
[34] = var. Dekalb 535, Zea mays (field corn), in vivo, 14 days
[35] = var. Pella 86, Glycine max (soybean), in vivo, 14 days
[36] = Triticum aestivum (wheat), in vivo, 14 days

SMILES	Pre-emerge Herbicidal Activity CAO (phytotoxicity rating) [1]	Post-emerge Herbicidal Activity AMR (phytotoxicity rating) [2]	Post-emerge Herbicidal Activity AML (phytotoxicity rating) [3]	Pre-emerge Herbicidal Activity AML (phytotoxicity rating) [4]	Post-emerge Herbicidal Activity XAS (phytotoxicity rating) [5]	Pre-emerge Herbicidal Activity ECC (phytotoxicity rating) [6]	Pre-emerge Herbicidal Activity SOH (phytotoxicity rating) [7]	Pre-emerge Herbicidal Activity DIS (phytotoxicity rating) [8]	Pre-emerge Herbicidal Activity XAS (phytotoxicity rating) [9]	Pre-emerge Herbicidal Activity IPH (phytotoxicity rating) [10]	Post-emerge Herbicidal Activity ABT (phytotoxicity rating) [11]	Post-emerge Herbicidal Activity ECC (phytotoxicity rating) [16]	Post-emerge Herbicidal Activity CAO (phytotoxicity rating) [17]	Pre-emerge Herbicidal Activity CHA (phytotoxicity rating) [18]	Pre-emerge Herbicidal Activity ABT (phytotoxicity rating) [19]	Pre-emerge Herbicidal Activity SEV (phytotoxicity rating) [21]	Pre-emerge Herbicidal Activity AMR (phytotoxicity rating) [22]	Post-emerge Herbicidal Activity SOH (phytotoxicity rating) [25]	Post-emerge Herbicidal Activity CHA (phytotoxicity rating) [27]	Post-emerge Herbicidal Activity SEV (phytotoxicity rating) [28]	also measured
O=C1CN2C(=O)COc3cc(F)c(N4C(=O)C5=C(CCCC5)C4=O)c(c32)N1 [1-37, 9-Flouro-8-(4,5,6,7-tetrahydro-2H-isoindole-1,3-dione-2-yl)-5H-pyrazino[1,2,3de]-1,4-benzoxazine-3,6(2H, 7H)-dione]	40	100	70	98	95	15	25	40	35	85	100	60	15	100	60	0	100	50	85	75	Pre-emerge crop damage RICE (phytotoxicity rating) [12, 31]: 20; Post-emerge crop damage CORN (phytotoxicity rating) [13, 32]: 35; Post-emerge crop damage SOY (phytotoxicity rating) [14, 32]: 55; Pre-emerge crop damage SOY (phytotoxicity rating) [15, 31]: 10; Post-emerge crop damage WHEAT (phytotoxicity rating) [20, 32]: 10; Pre-emerge crop damage CORN (phytotoxicity rating) [23, 31]: 15; Post-emerge crop damage RICE (phytotoxicity rating) [24, 32]: 80; Pre-emerge crop damage WHEAT (phytotoxicity rating) [26, 31]: 20; Post-emerge Herbicidal Activity DIS (phytotoxicity rating) [29]: 0; Post-emerge Herbicidal Activity IPH (phytotoxicity rating) [30]: 100
C[C@H]1Oc2cc(F)c(-c3nn(C)c(C(F)(F)F)c3Cl)c3c2N(CC(=O)N3)C1=O [1-48, 8-[4-Chloro-1-methyl-5-(trifluoromethyl)-1H-pyrazol-3-yl]-9-fluoro-2-R-methyl-5H-pyrazino[1,2,3-de]-1,4-benzoxazine-3,6(2H, 7H)-dione]	100	100	80	99	100	100	100	100	60	100	100	95	65	100	100	100	100	30	100	98	Pre-emerge crop damage RICE (phytotoxicity rating) [12, 33]: 55; Post-emerge crop damage CORN (phytotoxicity rating) [13, 34]: 10; Post-emerge crop damage SOY (phytotoxicity rating) [14, 35]: 65; Pre-emerge crop damage SOY (phytotoxicity rating) [15, 35]: 40; Post-emerge crop damage WHEAT (phytotoxicity rating) [20, 36]: 0; Pre-emerge crop damage CORN (phytotoxicity rating) [23, 34]: 70; Post-emerge crop damage RICE (phytotoxicity rating) [24, 33]: 60; Pre-emerge crop damage WHEAT (phytotoxicity rating) [26, 36]: 25; Post-emerge Herbicidal Activity DIS (phytotoxicity rating) [29]: 50; Post-emerge Herbicidal Activity IPH (phytotoxicity rating) [30]: 100
